target: BACE1 (Homo sapiens (Human), UniProt P56817); test: Test Example 1: BACE1 inhibition by FRET (MCA substrate); IC50 and Ki; conditions: read-out: Test Example 1 IC50
Sequence (P56817 75-416): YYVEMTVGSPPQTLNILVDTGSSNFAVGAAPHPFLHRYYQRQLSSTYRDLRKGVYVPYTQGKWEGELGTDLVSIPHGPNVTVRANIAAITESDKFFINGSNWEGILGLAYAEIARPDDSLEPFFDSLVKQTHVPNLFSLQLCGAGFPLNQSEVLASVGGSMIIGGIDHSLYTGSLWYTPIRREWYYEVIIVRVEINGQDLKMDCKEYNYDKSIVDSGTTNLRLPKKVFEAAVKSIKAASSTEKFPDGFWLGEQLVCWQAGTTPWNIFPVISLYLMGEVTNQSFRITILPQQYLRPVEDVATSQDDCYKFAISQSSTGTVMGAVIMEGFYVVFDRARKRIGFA

Compound	IC50
CC1(C)Oc2ccc(NC(=O)c3ccc(F)cn3)cc2C2(COC(N)=N2)C12COC2 (stereo not drawn) [Example 28]	0.154 µM
CC1(C)Oc2ccc(NC(=O)c3ncc(Cl)cc3F)cc2C2(COC(N)=N2)C12COC2 (stereo not drawn) [Example 30]	0.0975 µM

same assay, conditions: read-out: Test Example 1 IC50; FRET, MCA substrate 3 μM, BACE1 65 nM, pH 4.4

IC50	Compound
17.4 µM	CCCC1Oc2ccc(Br)cc2C2(COC(N)=N2)C12COC2 (single isomer, unassigned) [RP 11b]
15.6 µM	CCCC1Oc2ccc(Br)cc2C2(COC(N)=N2)C12COC2 (single isomer, unassigned) [RP 11a]

Compound	IC50
NC1=NC2(CO1)c1cc(NC(=O)c3ccc(Cl)cn3)ccc1OCC21CC1 (stereo not drawn) [RP 32]	0.418 µM

target: hERG potassium channel (Homo sapiens (Human), UniProt Q12809); test: Test Example 5: hERG inhibition, automated patch clamp in hERG-expressing CHO cells; conditions: read-out: Test Example 5 hERG IC50, QPatch, room temperature
Sequence (Q12809 whole entry): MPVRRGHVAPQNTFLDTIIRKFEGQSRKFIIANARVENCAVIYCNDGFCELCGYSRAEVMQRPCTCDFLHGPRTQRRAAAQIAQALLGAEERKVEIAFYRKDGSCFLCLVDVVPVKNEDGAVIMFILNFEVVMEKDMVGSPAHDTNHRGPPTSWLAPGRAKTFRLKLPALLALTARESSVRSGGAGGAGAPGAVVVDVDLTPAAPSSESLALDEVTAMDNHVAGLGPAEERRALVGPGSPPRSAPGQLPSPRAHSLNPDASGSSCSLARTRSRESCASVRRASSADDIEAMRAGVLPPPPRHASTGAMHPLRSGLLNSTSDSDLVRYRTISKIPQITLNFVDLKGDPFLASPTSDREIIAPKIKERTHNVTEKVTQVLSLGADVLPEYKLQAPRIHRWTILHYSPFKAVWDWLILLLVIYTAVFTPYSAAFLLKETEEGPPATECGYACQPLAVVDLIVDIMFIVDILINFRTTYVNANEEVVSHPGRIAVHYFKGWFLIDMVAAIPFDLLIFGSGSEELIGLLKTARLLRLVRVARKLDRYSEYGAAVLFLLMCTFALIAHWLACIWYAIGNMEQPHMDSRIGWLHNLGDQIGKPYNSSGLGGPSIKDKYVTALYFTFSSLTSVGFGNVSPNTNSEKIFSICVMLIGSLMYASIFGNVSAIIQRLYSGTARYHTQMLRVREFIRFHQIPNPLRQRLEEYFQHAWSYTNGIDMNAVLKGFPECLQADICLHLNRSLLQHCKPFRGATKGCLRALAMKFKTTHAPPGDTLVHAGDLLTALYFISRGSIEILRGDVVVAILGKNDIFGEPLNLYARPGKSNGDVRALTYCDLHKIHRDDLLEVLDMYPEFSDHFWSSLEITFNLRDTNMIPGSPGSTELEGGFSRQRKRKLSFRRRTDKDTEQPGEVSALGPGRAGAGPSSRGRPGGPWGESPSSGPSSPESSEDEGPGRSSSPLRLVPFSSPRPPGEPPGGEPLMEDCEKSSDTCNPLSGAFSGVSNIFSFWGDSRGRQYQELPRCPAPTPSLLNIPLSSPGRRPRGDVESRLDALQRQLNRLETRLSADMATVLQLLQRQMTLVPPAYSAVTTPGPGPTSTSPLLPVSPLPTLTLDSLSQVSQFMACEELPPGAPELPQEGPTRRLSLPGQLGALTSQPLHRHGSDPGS

Compound	IC50
CC1(C)Oc2ccc(NC(=O)c3ccc(C#N)cn3)cc2C2(COC(N)=N2)C12COC2 (stereo not drawn) [Example 197]	> 10 µM

system: Aβ production in SK-N-BE(2) neuroblastoma cells; test: Test Example 3: Aβ production inhibition in cell (Aβ40 ELISA, SK-N-BE(2)); conditions: Homo sapiens, SKNBE2, 6 h, read-out: Test Example 3 IC50

Compound	IC50
CC1(C)Oc2ccc(NC(=O)c3ccc(F)cn3)cc2C2(COC(N)=N2)C12COC2 (stereo not drawn) [Example 28]	0.019 µM
CC1(C)Oc2ccc(NC(=O)c3ncc(Cl)cc3F)cc2C2(COC(N)=N2)C12COC2 (stereo not drawn) [Example 30]	0.0023 µM
CC1(C)Oc2ccc(NC(=O)c3ccc(Cl)cn3)cc2C2(COC(N)=N2)C12COC2 (stereo not drawn) [Example 27, N-(2-amino-2′,2′-dimethyldispiro[1,3-oxazole-4,4′-chromene-3′,3″-oxetan]-6′-yl)-5-chloropyridine-2-carboxamide]	0.0094 µM

same assay, conditions: Homo sapiens, SKNBE2, 6 h, read-out: Test Example 3 IC50, SK-N-BE(2) cells, 6 hours, Aβ40 ELISA normalized by viability

Compound	IC50
CC1(C)Oc2ccc(Br)cc2C2(CSC(N)=N2)C12COC2 (stereo not drawn) [RP 42]	5.9 µM
CC1(C)Oc2ccc(NC(=O)c3ccc(Cl)cn3)cc2[C@@]2(COC(N)=N2)C12COC2 [Example 218, N-[(4S)-2-amino-2′,2′-dimethyldispiro[1,3-oxazole-4,4′-chromene-3′,3″-oxetan]-6′-yl]-5-chloropyridine-2-carboxamide]	0.00078 µM
CC1(C)Oc2ccc(-c3cnc4[nH]ccc4c3)cc2C2(COC(N)=N2)C12COC2 (stereo not drawn) [RP 168]	0.31 µM
CC#Cc1cncc(-c2ccc3c(c2)C2(COC(N)=N2)C2(CC2)CO3)c1 (stereo not drawn) [RP 111]	0.14 µM
COc1ncc(Cl)cc1-c1ccc2c(c1)C1(COC(N)=N1)C1(COC1)C(C)(C)O2 (stereo not drawn) [RP 155]	0.63 µM
C[C@@H]1Oc2ccc(-c3cccnc3F)cc2[C@@]2(COC(N)=N2)C12COC2 (racemic) [RP 79]	0.45 µM
CC1(C)Oc2ccc(-c3cncc(Cl)c3)cc2C2(COC(N)=N2)C12COC2 (stereo not drawn) [RP 173]	0.073 µM
CC1(C)Oc2ccc(-c3cc(C#N)ccc3F)cc2C2(COC(N)=N2)C12COC2 (stereo not drawn) [RP 170]	0.4 µM
NC1=NC2(CO1)c1cc(-c3cncc(OCC(F)F)c3)ccc1OCC21CC1 (stereo not drawn) [RP 59]	0.076 µM
COc1ccc(F)c(-c2ccc3c(c2)C2(COC(N)=N2)C2(COC2)C2(CCC2)O3)c1 (stereo not drawn) [RP 136, 6′-(2-fluoro-5-methoxyphenyl)trispiro[cyclobutane-1,2′-chromene-4′,4″-[1,3]oxazole-3′,3′″-oxetan]-2″-amine]	0.66 µM
CCOc1cc(-c2ccc3c(c2)C2(COC(N)=N2)C2(COC2)C2(CCC2)O3)cc(C(F)(F)F)c1 (stereo not drawn) [RP 129]	7.3 µM
NC1=NC2(CO1)c1cc(-c3cncnc3)ccc1OCC21COC1 (stereo not drawn) [RP 36]	0.81 µM
NC1=NC2(CO1)c1cc(-c3cccc(F)c3F)ccc1OC1(CCC1)C21COC1 (stereo not drawn) [RP 138]	1.5 µM
CCOc1cc(F)cc(-c2ccc3c(c2)C2(COC(N)=N2)C2(COC2)C2(CCC2)O3)c1 (stereo not drawn) [RP 133]	2.8 µM
CC1(C)Oc2ccc(NC(=O)c3ccc(Br)cn3)cc2[C@@]2(COC(N)=N2)C12COC2 [Example 219]	0.0022 µM
CC1(C)Oc2ccc(-c3ccc4c(c3)OCO4)cc2C2(COC(N)=N2)C12COC2 (stereo not drawn) [RP 182]	2.5 µM
C#Cc1cncc(-c2ccc3c(c2)C2(COC(N)=N2)C2(COC2)CO3)c1 (stereo not drawn) [RP 23]	0.9 µM
COc1ccc(F)c(-c2ccc3c(c2)C2(COC(N)=N2)C2(COC2)CO3)c1 (stereo not drawn) [RP 33]	0.95 µM
COc1cccnc1Nc1ccc2c(c1)C1(COC(N)=N1)C1(COC1)CO2 (stereo not drawn) [RP 26]	0.069 µM
CC#Cc1cncc(-c2ccc3c(c2)C2(COC(N)=N2)C2(CC2)CO3)c1 (single isomer, unassigned) [RP 52a, 6′-[5-(prop-1-yn-1-yl)pyridin-3-yl]dispiro[cyclopropane-1,3′-chromene-4′,4″-[1,3]oxazol]-2″-amine]	0.075 µM

Compound	IC50
CC1(C)Oc2ccc(-c3cc(Cl)cnc3F)cc2C2(COC(N)=N2)C12COC2 (stereo not drawn) [RP 154]	0.032 µM
COc1cc(-c2ccc3c(c2)C2(COC(N)=N2)C2(COC2)C2(CCC2)O3)c(F)cn1 (stereo not drawn) [RP 122]	1.1 µM
CC1(C)Oc2ccc(-c3cncnc3)cc2C2(COC(N)=N2)C12COC2 (single isomer, unassigned) [RP 51b, 2′,2′-dimethyl-6′-(pyrimidin-5-yl)dispiro[1,3-oxazole-4,4′-chromene-3′,3″-oxetan]-2-amine]	0.072 µM
Cc1cnc(Cl)c(-c2ccc3c(c2)C2(COC(N)=N2)C2(COC2)C(C)(C)O3)c1 (stereo not drawn) [RP 151]	0.28 µM
CC1(C)Oc2ccc(-c3cncnc3)cc2C2(COC(N)=N2)C12COC2 (stereo not drawn) [RP 69]	0.04 µM
NC1=NC2(CO1)c1cc(-c3cncnc3)ccc1OC(Cc1ccccc1)C21COC1 (stereo not drawn) [RP 200]	0.026 µM
CC1(C)Oc2ccc(-c3cc(Cl)cnc3Cl)cc2C2(COC(N)=N2)C12COC2 (stereo not drawn) [RP 152]	0.11 µM
COc1cncc(-c2ccc3c(c2)[C@@]2(COC(N)=N2)C2(COC2)[C@@H](C)O3)c1 (racemic) [RP 81]	0.51 µM
CC1(C)Oc2ccc(NC(=O)c3ccc(Cl)cn3)cc2[C@@]2(COC(N)=N2)C12CC2 [Example 221]	0.00016 µM
CC#Cc1cc(-c2ccc3c(c2)C2(COC(N)=N2)C2(COC2)CO3)ncn1 (stereo not drawn) [RP 21]	0.41 µM
CC1(C)Oc2ccc(-c3cc(F)cc(Cl)c3)cc2C2(COC(N)=N2)C12COC2 (stereo not drawn) [RP 146, 6′-(3-chloro-5-fluorophenyl)-2′,2′-dimethyldispiro[1,3-oxazole-4,4′-chromene-3′,3″-oxetan]-2-amine]	0.21 µM
COCc1cnn(-c2ccc3c(c2)C2(COC(N)=N2)C2(COC2)C2(CCC2)O3)c1 (stereo not drawn) [RP 4]	7.2 µM
CC1(C)Oc2ccc(-c3cc(F)ncc3Cl)cc2C2(COC(N)=N2)C12COC2 (stereo not drawn) [RP 158]	0.37 µM
CC#Cc1cncc(-c2ccc3c(c2)C2(CSC(N)=N2)C2(COC2)CO3)c1 (stereo not drawn) [RP 68]	0.5 µM
N#Cc1cncc(-c2ccc3c(c2)C2(COC(N)=N2)C2(COC2)C2(CCC2)O3)c1 (stereo not drawn) [RP 120]	2.3 µM
NC1=NC2(CO1)c1cc(-c3cncc(Cl)c3)ccc1OCC21CC1 (stereo not drawn) [RP 107]	0.46 µM
NC1=NC2(CO1)c1cc(-c3cc(Cl)cnc3F)ccc1OCC21COC1 (stereo not drawn) [RP 34]	0.26 µM
NC1=NC2(CO1)c1cc(-c3cncnc3)ccc1OCC21CC1 (stereo not drawn) [RP 100]	0.25 µM
CC#Cc1cncc(-c2ccc3c(c2)C2(COC(N)=N2)C2(COC2)C(C)(C)O3)c1 (stereo not drawn) [RP 110]	0.0092 µM
CC1(C)Oc2ccc(-c3cccc4cccnc34)cc2C2(COC(N)=N2)C12COC2 (stereo not drawn) [RP 179]	1.4 µM

Compound	IC50
COCC#Cc1cncc(-c2ccc3c(c2)C2(COC(N)=N2)C2(COC2)CO3)c1 (stereo not drawn) [RP 19, 6′-[5-(3-methoxyprop-1-yn-1-yl)pyridin-3-yl]dispiro[1,3-oxazole-4,4′-chromene-3′,3″-oxetan]-2-amine]	0.43 µM
COc1cncc(-c2ccc3c(c2)C2(COC(N)=N2)C2(CC2)CO3)c1 (stereo not drawn) [RP 105]	0.34 µM
Cc1cncc(-c2ccc3c(c2)C2(COC(N)=N2)C2(COC2)C2(CCC2)O3)c1 (stereo not drawn) [RP 75, 6′-(5-methylpyridin-3-yl)trispiro[cyclobutane-1,2′-chromene-4′,4″-[1,3]oxazole-3′,3′″-oxetan]-2″-amine]	1.1 µM
N#C/C=C/c1cccc(-c2ccc3c(c2)C2(COC(N)=N2)C2(COC2)C2(CCC2)O3)c1 (stereo not drawn) [RP 132]	1.2 µM
NC1=NC2(c3cc(-c4cncnc4)ccc3OCC23CC3)C(F)(F)CO1 (stereo not drawn) [RP 206]	> 30 µM
NC1=NC2(CO1)c1cc(NC(=O)c3ncc(Br)cn3)ccc1OCC21CC1 (stereo not drawn) [RP 189]	0.043 µM
COc1cccc(-c2ccc3c(c2)C2(COC(N)=N2)C2(COC2)C2(CCC2)O3)c1 (stereo not drawn) [RP 126]	1.2 µM
NC1=NC2(CO1)c1cc(-c3cncc(C(F)(F)F)c3)ccc1OC1(CCC1)C21COC1 (stereo not drawn) [RP 99]	1.9 µM
CCOc1cccc(-c2ccc3c(c2)C2(COC(N)=N2)C2(COC2)C(C)(C)O3)c1 (stereo not drawn) [RP 144]	0.46 µM
COc1cncc(-c2ccc3c(c2)C2(COC(N)=N2)C2(COC2)C2(CCC2)O3)c1 (stereo not drawn) [RP 72]	0.068 µM
CC#Cc1cc(-c2ccc3c(c2)C2(COC(N)=N2)C2(COC2)CO3)ccn1 (stereo not drawn) [RP 20]	0.58 µM
Cc1cc(-c2ccc3c(c2)C2(COC(N)=N2)C2(COC2)C(C)(C)O3)cnc1F (stereo not drawn) [RP 157]	0.66 µM
CC#Cc1cncc(-c2ccc3c(c2)C2(COC(N)=N2)C2(COC2)C(Cc2ccccc2)O3)c1 (stereo not drawn) [RP 201]	0.0087 µM
CC1(C)Oc2ccc(-c3cccnc3F)cc2C2(COC(N)=N2)C12COC2 (stereo not drawn) [RP 82]	0.036 µM
NC1=NC2(CO1)c1cc(-c3cccnc3F)ccc1OC1(CCC1)C21COC1 (stereo not drawn) [RP 71]	0.11 µM
NC1=NC2(CO1)c1cc(-c3cncc(OC(F)F)c3)ccc1OCC21CC1 (stereo not drawn) [RP 60]	0.16 µM
CCCC1Oc2ccc(-c3cncnc3)cc2C2(COC(N)=N2)C12COC2 (stereo not drawn) [RP 91]	0.34 µM
N#Cc1ccc(C(=O)Nc2ccc3c(c2)C2(COC(N)=N2)C2(CC2)CO3)nc1 (stereo not drawn) [RP 196]	0.053 µM
CC1(C)Oc2ccc(-c3c(F)ccc(F)c3F)cc2C2(COC(N)=N2)C12COC2 (stereo not drawn) [RP 185]	0.76 µM
NC1=NC2(CO1)c1cc(-c3cncc(F)c3)ccc1OC1(CCC1)C21COC1 (stereo not drawn) [RP 70]	0.96 µM

From patent US9242973B2, “Chromane compounds” (CoMentis, Inc., priority 2012, dated 2016)
